Assay in all cases: In vitro antifungal activity, microbroth dilution MIC
Common to all, as to type: cell-based
For orientation: Dilution methods test growth across graded concentrations, often in twofold steps.

Experiment [1] relates to Cryptococcus neoformans B. 42419. As to conditions: Cry. neoformans B. 42419, RPMI-1640, 35° C., 4 to 48 hours. Put shortly:
(§1)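 Broth microdilution adapted from NCCLS M27, in RPMI-1640 with 0.165 M MOPS, pH 7.0. Yeast or mould inoculum at 2×10^3 CFU/ml was mixed 1:1 with DMSO-derived compound solutions (200 to 0.10 μg/ml before mixing) and incubated at 35 °C for 4 to 48 h. MIC was the concentration showing no growth.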

In experiment [2] the test system is Trichophyton mentagrophytes A. 9129. As to conditions: T. mentagrophytes A. 9129, RPMI-1640, 35° C., 4 to 48 hours. In short, it runs like this:
as §1

In experiment [3] the test system is Cryptococcus neoformans IFM. 40092. The following applies: Cry. neoformans IFM. 40092, RPMI-1640, 35° C., 4 to 48 hours. In short, it runs like this: as §1
The test system of experiment [4] is Aspergillus furnigatus B. 19119. The following applies: A furnigatus B. 19119, RPMI-1640, 35° C., 4 to 48 hours. In short, it runs like this: as §1
Experiment [5] relates to Torulopsis glabrata B. 16205. The following applies: T. glabrata B. 16205, RPMI-1640, 35° C., 4 to 48 hours. In short, it runs like this: as §1
Experiment [6] has as its system Candida pseudotropicalis K. 11658. As to conditions: C. pseudotropicalis K. 11658, RPMI-1640, 35° C., 4 to 48 hours. In short, it runs like this: as §1
For experiment [7], the system named is Candida albicans A. 10231. The following applies: C. albicans A. 10231, RPMI-1640, 35° C., 4 to 48 hours. In short, it runs like this: as §1
Experiment [8] deals with Trichophyton mentagrophytes B. 32663. As to conditions: T. mentagrophytes B. 32663, RPMI-1640, 35° C., 4 to 48 hours. In short, it runs like this: as §1
In a further experiment the test system is Candida albicans C1-2. As to conditions: C. albicans C1-2, RPMI-1640, 35° C., 4 to 48 hours. In short, it runs like this:
as §1

The subject of experiment [9] is Cryptococcus neoformans A. 34144. As to conditions: Cry. neoformans A. 34144, RPMI-1640, 35° C., 4 to 48 hours. In short, it runs like this:
as §1

In the next experiment the test system is Candida krusei K. 11655. As to conditions: C. krusei K. 11655, RPMI-1640, 35° C., 4 to 48 hours. Put shortly: as §1
Experiment [10] relates to Candida parapsitosis A. 7330. The following applies: C. parapsitosis A. 7330, RPMI-1640, 35° C., 4 to 48 hours. In short, it runs like this:
as §1

The test system of experiment [11] is Candida albicans IFO. 1385. The following applies: C. albicans IFO. 1385, RPMI-1640, 35° C., 4 to 48 hours. Put shortly:
as §1

The test system of experiment [12] is Aspergillus niger A. 16404. The following applies: A. niger A. 16404, RPMI-1640, 35° C., 4 to 48 hours. In short, it runs like this: as §1
The test system of experiment [13] is Candida tropicalis A. 13803. The following applies: C. tropicalis A. 13803, RPMI-1640, 35° C., 4 to 48 hours. In short, it runs like this: as §1

The structures appear in SMILES notation.

As for `Cc1ccc(C(=C(F)OCC2COC(Cn3ccnc3)(c3ccc(F)cc3F)O2)C(F)(F)F)cc1` (mixture of isomers) [Ex. 54], the “Minimal inhibitory concentration (MIC)” value in experiment [1] is 0.78 mg/L; in experiment [2], 3.13 mg/L; in experiment [3] it was “≦0.10 μg/ml”; in experiment [4], 3.13 mg/L; in experiment [5] it was 6.25 mg/L; in experiment [6], 100 mg/L. Moreover, the “Minimal inhibitory concentration (MIC)” value in [7] was 12.5 mg/L; in experiment [8] it was 1.56 mg/L; in the experiment on Candida albicans C1-2, 25.0 mg/L; in [9] it was 1.56 mg/L; in the experiment with Candida krusei K. 11655, above 100 mg/L; in [10], above 100 mg/L. Moreover, the “Minimal inhibitory concentration (MIC)” value turned out to be 0.78 mg/L in [11], 25.0 mg/L in [12] and 100 mg/L in experiment [13].

Consider `CCc1ccc(C(=C(F)OCC2COC(Cn3ccnc3)(c3ccc(F)cc3F)O2)C(F)(F)F)cc1` (mixture of isomers) [Ex. 55], for which the “Minimal inhibitory concentration (MIC)” value was 0.78 mg/L in experiment [1]; 6.25 mg/L in experiment [2]; “≦0.10 μg/ml” in experiment [3]; 100 mg/L in experiment [4]; 6.25 mg/L in experiment [5]; 50.0 mg/L in experiment [6]. Further, the “Minimal inhibitory concentration (MIC)” value in experiment [7] was 12.5 mg/L; in experiment [8], 3.13 mg/L; with Candida albicans C1-2, 12.5 mg/L; in experiment [9], 0.78 mg/L; in the experiment on Candida krusei K. 11655, above 100 mg/L; in experiment [10] it was above 100 mg/L. Also, the entries for the “Minimal inhibitory concentration (MIC)” value in [11], in experiment [12] and in [13] were 0.78 mg/L, above 100 mg/L and 25.0 mg/L, respectively.

As to `Cc1ccc(C(=C(F)OCC2COC(Cn3ccnc3)(c3ccc(F)cc3F)O2)C(F)(F)F)cc1C` (mixture of isomers) [Ex. 56], the “Minimal inhibitory concentration (MIC)” value in [1] is 0.78 mg/L; in experiment [2], 6.25 mg/L; in [3], 0.20 mg/L; in experiment [4], 50.0 mg/L; in [5] it was 6.25 mg/L; in experiment [6], above 100 mg/L. For the same compound, the “Minimal inhibitory concentration (MIC)” value in experiment [7] was 12.5 mg/L; in experiment [8], 3.13 mg/L; in the experiment on Candida albicans C1-2, 12.5 mg/L; in experiment [9] it was 1.56 mg/L; in the experiment on Candida krusei K. 11655, above 100 mg/L; in [10], above 100 mg/L. The “Minimal inhibitory concentration (MIC)” value in experiment [11] is 0.78 mg/L; in [12] it was above 100 mg/L; in [13], 100 mg/L.

As to `Cc1cc(C)cc(C(=C(F)OCC2COC(Cn3ccnc3)(c3ccc(F)cc3F)O2)C(F)(F)F)c1` (mixture of isomers) [Ex. 57], the “Minimal inhibitory concentration (MIC)” value in experiment [1] was 0.78 mg/L; in [2], 6.25 mg/L; in experiment [3], 0.20 mg/L; in [4] it was 50.0 mg/L; in [5] it was 6.25 mg/L; in [6], above 100 mg/L. For the same compound, the “Minimal inhibitory concentration (MIC)” value in experiment [7] was 12.5 mg/L; in [8] it was 3.13 mg/L; in the experiment on Candida albicans C1-2 it was 12.5 mg/L; in experiment [9] it was 1.56 mg/L; in the experiment with Candida krusei K. 11655, above 100 mg/L; in experiment [10] it was above 100 mg/L. In addition, the “Minimal inhibitory concentration (MIC)” value was 0.78 mg/L in experiment [11], above 100 mg/L in [12] and 100 mg/L in experiment [13].

As to `FC(OCC1COC(Cn2ccnc2)(c2ccc(F)cc2F)O1)=C(c1cccc(C(F)(F)F)c1)C(F)(F)F` (mixture of isomers) [Ex. 58], the “Minimal inhibitory concentration (MIC)” value was 1.56 mg/L in [1]; 12.5 mg/L in [2]; 0.39 mg/L in experiment [3]; 25.0 mg/L in experiment [4]; 6.25 mg/L in experiment [5]; 50.0 mg/L in experiment [6]. For the same compound, the “Minimal inhibitory concentration (MIC)” value in experiment [7] was 25.0 mg/L; in [8], 6.25 mg/L; in the experiment on Candida albicans C1-2, 25.0 mg/L; in [9], 1.56 mg/L; in the experiment with Candida krusei K. 11655, 100 mg/L; in experiment [10], above 100 mg/L. For the same compound, the “Minimal inhibitory concentration (MIC)” value in experiment [11] was 0.78 mg/L; in experiment [12], above 100 mg/L; in experiment [13], above 100 mg/L.

`FC(OCC1COC(Cn2ccnc2)(c2ccc(F)cc2F)O1)=C(c1ccc(C(F)(F)F)cc1)C(F)(F)F` (mixture of isomers) [Ex. 59]: the “Minimal inhibitory concentration (MIC)” value in [1] was found to be 3.13 mg/L; in [2] it was 25.0 mg/L; in experiment [3], 0.78 mg/L; in experiment [4], 50.0 mg/L; in experiment [5], 3.13 mg/L; in experiment [6], 25.0 mg/L. For the same compound, the “Minimal inhibitory concentration (MIC)” value in experiment [7] is 12.5 mg/L; in experiment [8] it was 12.5 mg/L; with Candida albicans C1-2 it was 25.0 mg/L; in experiment [9], 3.13 mg/L; in the experiment with Candida krusei K. 11655, 50.0 mg/L; in experiment [10] it was above 100 mg/L. Further, the “Minimal inhibitory concentration (MIC)” value in experiment [11] is 0.78 mg/L; in [12], above 100 mg/L; in [13] it was above 100 mg/L.

With `COc1cccc(C(=C(F)OCC2COC(Cn3ccnc3)(c3ccc(F)cc3F)O2)C(F)(F)F)c1` (mixture of isomers) [Ex. 60], the “Minimal inhibitory concentration (MIC)” value in [1] is 1.56 mg/L; in experiment [2], 6.25 mg/L; in [3], 0.20 mg/L; in experiment [4] it was 12.5 mg/L; in experiment [5], 6.25 mg/L; in experiment [6], 100 mg/L. Also, the “Minimal inhibitory concentration (MIC)” value was 12.5 mg/L in experiment [7]; 3.13 mg/L in [8]; 12.5 mg/L in the experiment on Candida albicans C1-2; 1.56 mg/L in experiment [9]; above 100 mg/L in the experiment on Candida krusei K. 11655; above 100 mg/L in [10]. The “Minimal inhibitory concentration (MIC)” value stood at 0.78 mg/L in [11], 100 mg/L in experiment [12] and 100 mg/L in [13].

The record behind these values is patent publication US6376497B1, “Antifungal azole derivatives having a fluorinated vinyl group and process for preparing same” (Korea Research Institute of Chemical Technology, priority 1999, dated 2002).
